From patent publication US5302526A, “Recombinant DNA enclosed amphiphilic leader sequences for the production and purification of fusion proteins” (Creative BioMolecules, Inc., priority 1993, dated 1994)
Like-named read-outs stand apart in the source and are kept apart here. Ends that are not written are not given here.

Assay: HPLC partitioning of synthetic helix dimers between aqueous mobile phase and nonpolar C-18 stationary phase as a function of pH
Format: physicochemical
Description: To determine whether the properties of the synthetic helices corresponded to their expected properties, each was tested on an HPLC column using a nonpolar (C-18) stationary phase. A sample of synthetic peptide solution was then injected, and the elution time (time to emerge from the bottom of the column) measured. The void time for the column was measured by injecting a small charged molecule such as citrate or acetate. The fraction of the sample solubilized in the aqueous, mobile phase (versus that bound to the hydrophobic, immobile phase) is determined by the void time divided by the sample elution time. A sample emerging in the void time is completely soluble in the mobile phase, whereas if it emerges in two void times it is half solubilized in the mobile phase and half bound to the stationary phase. By this procedure the affinity of each of the synthetic peptides for the aqueous, mobile phase, relative to the hydrophobic, stationary phase, could be measured as a function of pH. The HPLC column was run isocratically (constant eluent) using one of several different buffer systems. […] For that reason a value of 13% was used for all the buffer systems in that at that concentration the elution time for the peptides was determined to be on the order of 2 to 20 times the void time. […] The column was allowed to equilibrate as judged by 214 nm absorbance baseline stability. […]

Sequence | fraction of the helix partitioned into the aqueous mobile phase (partition coefficient) as a function of pH (C-18 HPLC, isocratic, 13% acetonitrile, trend with increasing pH) | fraction of the helix partitioned into the aqueous mobile phase (partition coefficient) as a function of pH
AHNLNEAAHNLNEA [Helix P-81, (Ala--His--Asn--Leu--Asn--Glu--Ala)2] | fraction of the helix partitioning into the mobile phase increases as pH increases | –
AKNLNEAAKNLNEA [Helix P-72, (Ala--Lys--Asn--Leu--Asn--Glu--Ala)2] | – | as the pH increased the peptide partitioned increasingly into the hydrophobic (stationary) phase
